Test results from patent US11046646B2, “Alkylphenyl compounds” (BRISTOL-MYERS SQUIBB COMPANY, priority 2017, dated 2021).

Key:
S1P3 (EDG3) = S1P3 (EDG3) (Homo sapiens (Human), UniProt Q99500); assay: Receptor [35S] GTPγS binding assay, S1P3; assay type: biochemical; details: membranes from EDG3-Gal5-bla HEK293T cells; synthetically prepared phosphorylated compounds
Description: (§1) Receptor [^35S] GTPγS Binding Assays:
(§2) Compounds were loaded in a 384 Falcon v-bottom plate (0.5 μL/well in a 11 point, 3-fold dilution). Membranes prepared from S1P1/CHO cells or EDG3-Gal5-bla HEK293T cells (EDG3 equivalent S1P3) were added to the compound plate (40 μL/well, final protein 3 μg/well) with MULTIDROP®. [^35S]GTP (1250 Ci/mmol, Perkin Elmer) was diluted in assay buffer: 20 mM HEPES, pH7.5, 10 mM MgCl2, 150 mM NaCl, 1 mM EGTA(ethylene glycol tetraacetic acid), 1 mM DTT (dithiothreitol), 10 μM GDP, 0.1% fatty acid free BSA, and 10 μg/ml Saponin to 0.4 nM. 40 μL of the [^35S] GTP solution was added to the compound plate with a final concentration of 0.2 nM. The reaction was kept at room temperature for 45 min. At the end of incubation, all the mixtures in the compound plate were transferred to Millipore 384-well FB filter plates via the VELOCITY11® Vprep liquid handler. The filter plate was washed with water 4 times by using the manifold Embla plate washer and dried at 60° C. for 45 min. MicroScint 20 scintillation fluid (30 μL) was added to each well for counting on the Packard TOPCOUNT®. EC50 is defined as the agonist concentration that corresponds to 50% of the Ymax (maximal response) obtained for each individual compound tested.

S1P1 = S1P1 (Homo sapiens (Human), UniProt P21453); assay: Receptor [35S] GTPγS binding assay, S1P1; assay type: biochemical; details: for GTPγS S1P1 EC50 value as compared to Comparative Compound 20: in words; for EC50: membranes from S1P1/CHO cells, synthetically prepared phosphorylated compounds
Description: as §1, §2
A smaller value for GTPγS S1P1 EC50 value indicated greater activity for the compound in the GTPγS S1P1 binding assay. Thus the compounds of the present invention may be used in treating, preventing, or curing various S1P1 receptor-related conditions. The compounds have potential use in treating, preventing, or curing autoimmune and inflammatory diseases such as multiple sclerosis, rheumatoid arthritis, inflammatory bowel disease, lupus, psoriasis, or minimizing or reducing rejection of transplanted organs.

S1P1, sequence (P21453 whole entry): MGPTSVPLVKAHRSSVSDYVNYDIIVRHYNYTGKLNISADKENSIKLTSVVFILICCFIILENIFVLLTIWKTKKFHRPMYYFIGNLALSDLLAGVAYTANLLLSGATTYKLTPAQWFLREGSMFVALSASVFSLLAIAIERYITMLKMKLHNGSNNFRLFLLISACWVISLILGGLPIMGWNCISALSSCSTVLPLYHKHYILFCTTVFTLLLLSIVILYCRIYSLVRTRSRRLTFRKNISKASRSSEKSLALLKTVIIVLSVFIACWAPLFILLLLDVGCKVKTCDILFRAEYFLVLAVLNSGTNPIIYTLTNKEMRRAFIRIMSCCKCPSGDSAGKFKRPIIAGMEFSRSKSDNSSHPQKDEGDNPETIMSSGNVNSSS
S1P3 (EDG3), sequence (Q99500 whole entry): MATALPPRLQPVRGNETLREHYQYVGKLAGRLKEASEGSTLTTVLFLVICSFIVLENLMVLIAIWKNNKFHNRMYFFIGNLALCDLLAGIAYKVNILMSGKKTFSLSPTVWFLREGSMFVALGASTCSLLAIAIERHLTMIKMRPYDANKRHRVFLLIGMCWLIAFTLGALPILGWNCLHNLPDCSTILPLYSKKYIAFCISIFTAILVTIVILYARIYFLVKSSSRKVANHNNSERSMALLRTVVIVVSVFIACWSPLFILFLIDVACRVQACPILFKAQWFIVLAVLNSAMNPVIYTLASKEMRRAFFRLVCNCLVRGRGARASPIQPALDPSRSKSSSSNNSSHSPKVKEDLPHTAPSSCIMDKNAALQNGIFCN

CCCCCCCCc1ccc(CN2CCC(N)(COP(=O)(O)O)C2=O)cc1 (stereo not shown) [Example 14, (3-amino-1-(4-octylbenzyl)-2-oxopyrrolidin-3-yl)methyl dihydrogen phosphate]
EC50 (S1P3 (EDG3)): > 30 µM | GTPγS S1P1 EC50 value as compared to Comparative Compound 20 (S1P1): significant improvement | EC50 (S1P1): 0.041 µM

CCCCCCCCc1ccc(N2CCC(N)(COP(=O)(O)O)C2=O)c(C)c1 (stereo not shown) [Example 17, (3-amino-1-(2-methyl-4-octylphenyl)-2-oxopyrrolidin-3-yl)methyl dihydrogen phosphate]
EC50 (S1P3 (EDG3)): > 60 µM | GTPγS S1P1 EC50 value as compared to Comparative Compound 20 (S1P1): significant improvement | EC50 (S1P1): 0.161 µM

CCCCCCCCc1ccc(N2CCC(N)(COP(=O)(O)O)C2=O)cc1 (stereo not shown) [Example 18, (3-amino-1-(4-octylphenyl)-2-oxopyrrolidin-3-yl)methyl dihydrogen phosphate]
EC50 (S1P3 (EDG3)): > 60 µM | EC50 (S1P1): 0.454 µM

CCCCCCCCc1ccc(N2CCC(N)(COP(=O)(O)O)C2)cc1 (stereo not shown) [compound 20, (3-amino-1-(4-octylphenyl)pyrrolidin-3-yl)methyl dihydrogen phosphate, reference compound]
EC50 (S1P3 (EDG3)): > 30 µM | EC50 (S1P1): 0.384 µM
